# In ChEMBL document CHEMBL2331425, “Triazolo and imidazo dihydropyrazolopyrimidine potassium channel antagonists” (Bioorg Med Chem Lett, 2013):
# Assays:
# hERG (KCNH2) = hERG (KCNH2) (Homo sapiens, UniProt Q12809); assay: Inhibition of human ERG current in HEK293 cells at 10 uM by patch clamp method relative to control; assay type: cell-based; settings: HEK293 cells expressing human ERG
# [1] = molecular target: T1, Potassium voltage-gated channel subfamily A member 5 (Homo sapiens, UniProt P22460); assay: Antagonist activity at human Kv1.5 expressed in mouse L929 cells assessed as inhibition of delayed rectifier repolarization current by patch clamp assay; assay type: cell-based
# [2] = molecular target: T1, Potassium voltage-gated channel subfamily A member 5; assay: Antagonist activity at human Kv1.5 expressed in mouse L929 cells assessed as inhibition of delayed rectifier repolarization current at 0.3 uM by patch clamp assay relative to control; assay type: cell-based
# Cytochrome P450 3A4 = Cytochrome P450 3A4 (Homo sapiens, UniProt P08684); assay: Inhibition of CYP3A4 (unknown origin); assay type: ADME
# Cytochrome P450 2D6 = Cytochrome P450 2D6 (Homo sapiens, UniProt P10635); assay: Inhibition of CYP2D6 (unknown origin); assay type: ADME
# Cytochrome P450 2C19 = Cytochrome P450 2C19 (Homo sapiens, UniProt P33261); assay: Inhibition of CYP2C19 (unknown origin); assay type: ADME
# Cytochrome P450 2C9 = Cytochrome P450 2C9 (Homo sapiens, UniProt P11712); assay: Inhibition of CYP2C9 (unknown origin); assay type: ADME
# Cytochrome P450 1A2 = molecular target: T2, Cytochrome P450 1A2 (Homo sapiens, UniProt P05177); assay: Inhibition of CYP1A2 (unknown origin); assay type: ADME
# T2 sequence (P05177 whole entry): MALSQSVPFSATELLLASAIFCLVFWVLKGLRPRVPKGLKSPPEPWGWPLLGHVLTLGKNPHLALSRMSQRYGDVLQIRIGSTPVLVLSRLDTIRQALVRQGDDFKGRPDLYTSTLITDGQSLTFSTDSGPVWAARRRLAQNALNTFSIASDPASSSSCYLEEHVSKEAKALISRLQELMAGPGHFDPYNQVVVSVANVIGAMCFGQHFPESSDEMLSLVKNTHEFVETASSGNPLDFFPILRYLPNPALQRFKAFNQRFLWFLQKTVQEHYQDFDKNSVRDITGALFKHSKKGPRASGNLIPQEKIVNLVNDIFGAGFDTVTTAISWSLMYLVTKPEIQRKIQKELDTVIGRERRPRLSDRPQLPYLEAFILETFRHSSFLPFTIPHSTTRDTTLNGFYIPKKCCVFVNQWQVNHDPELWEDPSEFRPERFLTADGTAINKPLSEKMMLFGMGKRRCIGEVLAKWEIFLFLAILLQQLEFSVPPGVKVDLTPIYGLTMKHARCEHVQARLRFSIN
# [3] = molecular target: T3, Nuclear receptor subfamily 1 group I member 2 (Homo sapiens, UniProt O75469); assay: Transactivation of PXR (unknown origin)
# T3 sequence (O75469 whole entry): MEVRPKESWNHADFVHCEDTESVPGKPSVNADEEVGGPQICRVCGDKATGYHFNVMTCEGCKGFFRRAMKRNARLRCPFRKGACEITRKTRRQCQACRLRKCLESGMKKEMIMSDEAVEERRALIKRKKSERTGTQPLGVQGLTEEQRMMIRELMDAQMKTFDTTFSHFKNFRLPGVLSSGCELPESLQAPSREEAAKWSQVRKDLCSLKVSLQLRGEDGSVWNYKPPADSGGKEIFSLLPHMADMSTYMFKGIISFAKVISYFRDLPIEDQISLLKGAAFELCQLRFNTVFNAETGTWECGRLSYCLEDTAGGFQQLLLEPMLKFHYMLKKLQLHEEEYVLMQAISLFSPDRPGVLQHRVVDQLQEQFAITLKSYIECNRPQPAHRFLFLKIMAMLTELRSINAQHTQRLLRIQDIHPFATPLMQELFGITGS
# [4] = Clearance in Sprague-Dawley rat at 1 mg/kg, iv; assay type: ADME, organism-based; set-up: dose 1 mg/kg, route intravenous; settings: in vivo
# [5] = Half life in Sprague-Dawley rat at 1 mg/kg, iv; assay type: ADME, organism-based; set-up: dose 1 mg/kg, route intravenous; settings: in vivo
# [6] = molecular target: Voltage-gated inwardly rectifying potassium channel KCNH2 (Homo sapiens, UniProt Q12809); assay: Inhibition of human ERG current in HEK293 cells by patch clamp method; assay type: cell-based
# [7] = molecular target: Voltage-gated L-type calcium channel (Homo sapiens, UniProt Q13936+Q13698+Q01668+O60840); assay: Inhibition of L-type calcium channel (unknown origin)
# [8] = Inhibition of sodium channel (unknown origin); set-up: species or system Homo sapiens
# [9] = Drug uptake in Sprague-Dawley rat brain at 0.3 mg/kg, iv administered as 5 mins infusion measured after 10 mins; assay type: ADME, organism-based; set-up: dose 0.3 mg/kg, route intravenous; settings: read-out: Drug uptake
# [10] = Plasma concentration in Sprague-Dawley rat at 0.3 mg/kg, iv administered as 5 mins infusion measured after 10 mins; assay type: ADME, organism-based; set-up: dose 0.3 mg/kg, route intravenous
# [11] = Plasma concentration in Sprague-Dawley rat at 0.3 mg/kg, iv administered as 5 mins infusion measured at 5 mins; assay type: ADME, organism-based; set-up: dose 0.3 mg/kg, route intravenous
# Rattus norvegicus [12] = assay: Antiarrhythmic activity in Sprague-Dawley rat assessed as decrease in ventricular effective refractory period at 0.3 mg/kg, iv administered as 5 mins infusion measured after 5 mins relative to control; assay type: functional, Heart; set-up: scale not given: the % may be the effect or the level left
# Rattus norvegicus [13] = assay: Antiarrhythmic activity in Sprague-Dawley rat assessed as decrease in QT interval at 0.3 mg/kg, iv administered as 5 mins infusion measured after 5 mins relative to control; assay type: functional, Heart; set-up: scale not given: the % may be the effect or the level left
# Rattus norvegicus [14] = assay: Antiarrhythmic activity in Sprague-Dawley rat assessed as increase in heart rate at 0.3 mg/kg, iv administered as 5 mins infusion measured after 5 mins relative to control; assay type: functional
# Rattus norvegicus [15] = assay: Antiarrhythmic activity in Sprague-Dawley rat assessed as decrease in blood pressure at 0.3 mg/kg, iv administered as 5 mins infusion measured after 5 mins; assay type: functional; set-up: scale not given: the % may be the effect or the level left
# T1 sequence (P22460 whole entry): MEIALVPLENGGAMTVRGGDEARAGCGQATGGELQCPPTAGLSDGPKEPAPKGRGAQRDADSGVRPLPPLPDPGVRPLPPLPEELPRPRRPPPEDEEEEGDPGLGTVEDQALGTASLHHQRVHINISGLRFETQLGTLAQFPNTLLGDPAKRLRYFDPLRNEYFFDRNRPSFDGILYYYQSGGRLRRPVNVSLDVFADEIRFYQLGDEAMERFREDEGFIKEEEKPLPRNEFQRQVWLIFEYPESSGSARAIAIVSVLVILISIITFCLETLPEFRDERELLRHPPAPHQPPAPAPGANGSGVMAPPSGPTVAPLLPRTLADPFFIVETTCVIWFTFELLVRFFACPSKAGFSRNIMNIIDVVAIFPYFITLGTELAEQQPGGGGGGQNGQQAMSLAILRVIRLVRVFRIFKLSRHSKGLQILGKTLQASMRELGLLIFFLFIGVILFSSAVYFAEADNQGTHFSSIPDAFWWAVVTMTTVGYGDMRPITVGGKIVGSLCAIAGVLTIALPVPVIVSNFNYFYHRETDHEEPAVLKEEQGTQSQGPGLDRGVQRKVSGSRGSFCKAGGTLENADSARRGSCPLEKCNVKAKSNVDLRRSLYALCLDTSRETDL
# Chain of hERG (KCNH2) (Q12809 whole entry): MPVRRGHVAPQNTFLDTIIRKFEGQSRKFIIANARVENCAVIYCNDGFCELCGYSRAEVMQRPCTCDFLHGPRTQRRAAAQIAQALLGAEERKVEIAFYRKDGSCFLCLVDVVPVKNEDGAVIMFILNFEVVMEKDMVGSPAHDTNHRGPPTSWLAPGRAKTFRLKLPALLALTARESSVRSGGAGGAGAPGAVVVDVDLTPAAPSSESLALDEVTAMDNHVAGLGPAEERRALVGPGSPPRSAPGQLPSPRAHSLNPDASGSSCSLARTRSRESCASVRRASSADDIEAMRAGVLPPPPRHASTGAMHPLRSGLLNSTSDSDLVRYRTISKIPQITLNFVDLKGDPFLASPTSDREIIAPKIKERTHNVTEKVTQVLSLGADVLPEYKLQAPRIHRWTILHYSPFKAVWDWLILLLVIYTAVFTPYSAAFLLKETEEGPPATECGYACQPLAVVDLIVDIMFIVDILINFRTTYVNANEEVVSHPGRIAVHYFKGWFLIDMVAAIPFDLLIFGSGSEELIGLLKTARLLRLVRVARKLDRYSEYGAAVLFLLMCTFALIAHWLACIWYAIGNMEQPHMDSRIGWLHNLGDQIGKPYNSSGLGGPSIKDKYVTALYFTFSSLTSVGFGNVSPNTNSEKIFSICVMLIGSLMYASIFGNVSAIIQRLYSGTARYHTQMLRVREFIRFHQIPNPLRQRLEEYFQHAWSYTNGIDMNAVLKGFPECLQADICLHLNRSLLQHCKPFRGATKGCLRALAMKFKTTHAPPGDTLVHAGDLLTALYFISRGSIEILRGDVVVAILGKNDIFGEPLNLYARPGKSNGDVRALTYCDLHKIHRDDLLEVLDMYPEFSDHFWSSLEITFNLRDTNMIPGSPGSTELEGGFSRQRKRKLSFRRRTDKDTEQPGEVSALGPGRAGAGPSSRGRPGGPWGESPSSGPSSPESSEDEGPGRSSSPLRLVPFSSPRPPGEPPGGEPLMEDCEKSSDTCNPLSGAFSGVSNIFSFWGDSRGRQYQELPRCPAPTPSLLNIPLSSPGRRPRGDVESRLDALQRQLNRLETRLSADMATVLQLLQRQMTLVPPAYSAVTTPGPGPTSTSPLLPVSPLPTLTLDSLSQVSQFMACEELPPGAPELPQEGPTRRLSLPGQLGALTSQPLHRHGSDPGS
# Chain of Cytochrome P450 2C19 (P33261 whole entry): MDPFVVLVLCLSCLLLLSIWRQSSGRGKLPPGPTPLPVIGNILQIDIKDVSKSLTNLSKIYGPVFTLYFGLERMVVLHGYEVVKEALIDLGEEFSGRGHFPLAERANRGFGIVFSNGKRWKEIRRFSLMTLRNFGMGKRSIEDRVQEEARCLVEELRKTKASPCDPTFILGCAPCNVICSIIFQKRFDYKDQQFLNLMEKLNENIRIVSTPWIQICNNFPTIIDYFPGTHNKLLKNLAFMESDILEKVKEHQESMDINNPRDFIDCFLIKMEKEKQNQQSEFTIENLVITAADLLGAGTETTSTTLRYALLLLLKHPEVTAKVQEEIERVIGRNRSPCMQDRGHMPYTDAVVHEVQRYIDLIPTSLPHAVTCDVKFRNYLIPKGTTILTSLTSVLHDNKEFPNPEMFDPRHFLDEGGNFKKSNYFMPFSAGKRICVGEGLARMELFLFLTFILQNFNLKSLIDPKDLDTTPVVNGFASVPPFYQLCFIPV
# Chain of Cytochrome P450 2D6 (P10635 whole entry): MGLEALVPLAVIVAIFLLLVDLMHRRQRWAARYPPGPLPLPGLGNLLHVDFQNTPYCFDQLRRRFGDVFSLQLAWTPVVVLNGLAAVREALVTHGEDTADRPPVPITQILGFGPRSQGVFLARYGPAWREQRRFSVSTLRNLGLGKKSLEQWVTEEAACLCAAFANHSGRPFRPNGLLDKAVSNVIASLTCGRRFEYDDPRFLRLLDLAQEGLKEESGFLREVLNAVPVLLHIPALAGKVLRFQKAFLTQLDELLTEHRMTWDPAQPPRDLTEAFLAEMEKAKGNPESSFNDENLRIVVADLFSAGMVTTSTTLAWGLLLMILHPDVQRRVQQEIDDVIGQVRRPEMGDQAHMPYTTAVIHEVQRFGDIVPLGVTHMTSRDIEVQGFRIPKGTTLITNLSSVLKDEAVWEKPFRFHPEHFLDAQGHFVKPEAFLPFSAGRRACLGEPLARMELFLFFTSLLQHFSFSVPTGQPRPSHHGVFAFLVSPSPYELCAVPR
# Chain of Cytochrome P450 3A4 (P08684 whole entry): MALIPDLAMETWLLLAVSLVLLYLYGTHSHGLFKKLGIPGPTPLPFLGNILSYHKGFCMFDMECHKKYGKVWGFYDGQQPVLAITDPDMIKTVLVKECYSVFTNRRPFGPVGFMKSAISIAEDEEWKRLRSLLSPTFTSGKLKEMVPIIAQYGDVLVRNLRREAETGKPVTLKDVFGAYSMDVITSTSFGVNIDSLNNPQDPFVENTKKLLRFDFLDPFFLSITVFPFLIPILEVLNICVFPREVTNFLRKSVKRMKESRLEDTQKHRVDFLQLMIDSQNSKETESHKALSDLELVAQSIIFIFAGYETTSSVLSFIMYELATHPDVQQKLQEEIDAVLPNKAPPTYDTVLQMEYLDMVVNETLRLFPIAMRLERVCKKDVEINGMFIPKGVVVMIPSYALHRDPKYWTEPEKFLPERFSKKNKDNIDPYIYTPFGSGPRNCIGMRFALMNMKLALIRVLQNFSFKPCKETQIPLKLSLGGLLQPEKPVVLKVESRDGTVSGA
# Chain of Cytochrome P450 2C9 (P11712 whole entry): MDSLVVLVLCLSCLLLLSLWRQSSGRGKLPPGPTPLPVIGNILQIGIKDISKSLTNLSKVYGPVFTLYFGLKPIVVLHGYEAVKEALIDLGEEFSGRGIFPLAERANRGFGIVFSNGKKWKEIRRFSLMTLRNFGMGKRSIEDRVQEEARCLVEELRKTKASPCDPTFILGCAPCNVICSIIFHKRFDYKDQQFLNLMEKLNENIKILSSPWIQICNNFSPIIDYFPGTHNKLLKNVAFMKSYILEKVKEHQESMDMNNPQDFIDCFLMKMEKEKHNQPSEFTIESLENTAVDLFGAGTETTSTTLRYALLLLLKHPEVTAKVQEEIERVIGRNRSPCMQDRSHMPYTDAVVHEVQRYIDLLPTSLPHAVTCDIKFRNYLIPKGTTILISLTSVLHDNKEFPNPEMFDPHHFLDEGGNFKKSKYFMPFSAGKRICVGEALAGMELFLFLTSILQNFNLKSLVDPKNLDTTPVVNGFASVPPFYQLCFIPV
# Chain of Voltage-gated inwardly rectifying potassium channel KCNH2 (Q12809 whole entry): as the sequence (Q12809 whole entry) above
smiles,measurement,setting,value
CC1=C(c2ncnn2C(C)C)[C@@H](c2ccc(Cl)c(Cl)c2)n2nccc2N1,inhibition at 10 µM,hERG (KCNH2),26%
same,IC50,[1],89 nM
CC1=C(c2ncnn2CCCC(F)(F)F)[C@@H](c2ccc(Cl)c(Cl)c2)n2nccc2N1,IC50,[1],103 nM
CC1=C(c2ncnn2CCO)[C@@H](c2ccc(Cl)c(Cl)c2)n2nccc2N1,inhibition,[2],6%
"CC1=C(c2ncnn2C2CCC(C(F)(F)F)CC2)[C@@H](c2ccc(Cl)c(Cl)c2)n2nc(C(F)(F)F)cc2N1 (single isomer, unassigned; isomer 2)",INH,Cytochrome P450 3A4,25 µM
same,INH,Cytochrome P450 2D6,27 µM
same,INH,Cytochrome P450 2C19,7 µM
same,INH,Cytochrome P450 2C9,8 µM
same,INH,Cytochrome P450 1A2,40 µM
same,EC20,[3],3600 nM
same,IC50,[1],607 nM
CC1=C(c2ncnn2-c2ccccn2)[C@@H](c2ccc(Cl)c(Cl)c2)n2nc(C(F)(F)F)cc2N1,inhibition,[2],11%
CC1=C(c2ncn(-c3ccccc3F)n2)[C@@H](c2ccc(Cl)c(Cl)c2)n2nc(C)cc2N1,inhibition,[2],23%
CC1=C(c2ncnn2C2CCC2)[C@@H](c2ccc(Cl)c(Cl)c2)n2nccc2N1,IC50,[1],48 nM
CC1=C(c2ncnn2-c2ccc(C)cc2)[C@@H](c2ccc(Cl)c(Cl)c2)n2nccc2N1,IC50,[1],80 nM
COc1ccccc1-n1ncnc1C1=C(C)Nc2ccnn2[C@@H]1c1ccc(Cl)c(Cl)c1,IC50,[1],116 nM
CC1=C(c2ncnn2-c2cc(C)ccn2)[C@@H](c2ccc(Cl)c(Cl)c2)n2nc(C(F)(F)F)cc2N1,EC20,[3],440 nM
same,IC50,[1],410 nM
CC1=C(c2ncn(-c3ccc(C)cc3)n2)[C@@H](c2ccc(Cl)c(Cl)c2)n2nc(C)cc2N1,inhibition,[2],14%
CC1=C(c2ncnn2-c2ccccc2F)[C@@H](c2ccc(Cl)c(Cl)c2)n2nccc2N1,IC50,[1],74 nM
CC1=C(c2ncnn2-c2ccc(C)cn2)[C@@H](c2ccc(Cl)c(Cl)c2)n2nc(C(F)(F)F)cc2N1,IC50,[1],389 nM
CC1=C(c2ncnn2C(C)(C)C)[C@@H](c2ccc(Cl)c(Cl)c2)n2nccc2N1,IC50,[1],223 nM
CCOc1cccc(-n2ncnc2C2=C(C)Nc3cc(C(F)(F)F)nn3[C@@H]2c2ccc(Cl)c(Cl)c2)n1,EC20,[3],1100 nM
same,IC50,[1],223 nM
CCn1ncnc1C1=C(C)Nc2ccnn2[C@@H]1c1ccc(Cl)c(Cl)c1,IC50,[1],191 nM
CC1=C(c2ncnn2-c2cccc(C)n2)[C@@H](c2ccc(Cl)c(Cl)c2)n2nc(C(F)(F)F)cc2N1,EC20,[3],440 nM
same,IC50,[1],211 nM
CC1=C(C(=O)N2CCN(c3ccc(F)cc3)CC2)[C@@H](c2ccc(Cl)c(Cl)c2)n2nccc2N1,clearance,[4],134 mL/min/kg
same,half-life,[5],36 min
CC1=C(c2ncnn2C2CCC2)[C@@H](c2ccc(Cl)c(Cl)c2)n2nc(C(F)(F)F)cc2N1,IC50,[1],165 nM
CC1=C(c2ncnn2C2CCCCC2)[C@@H](c2ccc(Cl)c(Cl)c2)n2nccc2N1,inhibition at 10 µM,hERG (KCNH2),87%
same,IC50,[1],59 nM
CC1=C(c2ncnn2CCC(F)(F)F)[C@@H](c2ccc(Cl)c(Cl)c2)n2nccc2N1,IC50,[1],151 nM
COc1cccc(-n2ncnc2C2=C(C)Nc3cc(C(F)(F)F)nn3[C@@H]2c2ccc(Cl)c(Cl)c2)n1,EC20,[3],960 nM
same,inhibition at 10 µM,hERG (KCNH2),98%
same,IC50,[1],87 nM
COc1cccc(-n2cnc(C3=C(C)Nc4cc(C)nn4[C@@H]3c3ccc(Cl)c(Cl)c3)n2)c1,inhibition,[2],14%
CC1=C(c2ncnn2C2CCCC2)[C@@H](c2ccc(Cl)c(Cl)c2)n2nccc2N1,INH,[6],6 µM
same,IC50,[1],37 nM
CC1=C(c2ncnn2-c2ccc(C)cc2)[C@@H](c2ccc(Cl)c(Cl)c2)n2nc(C)cc2N1,inhibition,[2],25%
COCc1cc2n(n1)[C@H](c1ccc(Cl)c(Cl)c1)C(c1ncnn1C1CCC1)=C(C)N2,inhibition,[2],25%
CC1=C(c2ncn[nH]2)[C@@H](c2ccc(Cl)c(Cl)c2)n2nccc2N1,inhibition,[2],8%
CCOCCn1ccnc1C1=C(C)Nc2cc(C(F)(F)F)nn2[C@@H]1c1ccc(Cl)c(Cl)c1,clearance,[4],45 mL/min/kg
same,half-life,[5],36 min
same,EC20,[3],640 nM
same,IC50,[1],98 nM
CC1=C(c2ncnn2Cc2ccccc2)[C@@H](c2ccc(Cl)c(Cl)c2)n2nccc2N1,IC50,[1],135 nM
CCn1ccnc1C1=C(C)Nc2cc(C(F)(F)F)nn2[C@@H]1c1ccc(Cl)c(Cl)c1,EC20,[3],110 nM
same,IC50,[1],128 nM
CC1=C(c2ncnn2-c2cccc(F)c2)[C@@H](c2ccc(Cl)c(Cl)c2)n2nccc2N1,IC50,[1],97 nM
CC1=C(c2ncnn2C2CCC2)[C@@H](c2ccc(Cl)c(Cl)c2)n2nc(C)cc2N1,clearance,[4],101 mL/min/kg
same,half-life,[5],36 min
same,inhibition at 10 µM,hERG (KCNH2),40%
same,IC50,[1],94 nM
COc1ccc(-n2cnc(C3=C(C)Nc4cc(C)nn4[C@@H]3c3ccc(Cl)c(Cl)c3)n2)cc1,inhibition,[2],5%
CC1=C(c2ncnn2C2CCC2)[C@@H](c2ccc(Cl)c(Cl)c2)n2nc(C(C)(C)C)cc2N1,IC50,[1],283 nM
COc1ccccc1-n1cnc(C2=C(C)Nc3cc(C)nn3[C@@H]2c2ccc(Cl)c(Cl)c2)n1,inhibition,[2],4%
CC1=C(c2ncnn2-c2cccc(Cl)n2)[C@@H](c2ccc(Cl)c(Cl)c2)n2nc(C(F)(F)F)cc2N1,IC50,[1],190 nM
"CC1=C(c2ncnn2C2CCC(C(F)(F)F)CC2)[C@@H](c2ccc(Cl)c(Cl)c2)n2nc(C(F)(F)F)cc2N1 (single isomer, unassigned; isomer 1)",IC50,[7],5200 nM
same,IC50,[8],46000 nM
same,concentration at 10 min,[9],30 nM
same,concentration at 10 min,[10],430 nM
same,concentration at 5 min,[11],1600 nM
same,Activity,Rattus norvegicus [12],25%
same,Activity,Rattus norvegicus [13],8%
same,Activity,Rattus norvegicus [14],6%
same,Activity,Rattus norvegicus [15],28%
same,clearance,[4],29 mL/min/kg
same,half-life,[5],72 min
same,INH,Cytochrome P450 3A4,40 µM
same,INH,Cytochrome P450 2D6,22 µM
same,INH,Cytochrome P450 2C19,6 µM
same,INH,Cytochrome P450 2C9,7 µM
same,EC20,[3],5000 nM
same,inhibition at 10 µM,hERG (KCNH2),38%
same,IC50,[1],133 nM
CC1=C(c2ncnn2-c2cccc(F)n2)[C@@H](c2ccc(Cl)c(Cl)c2)n2nc(C(F)(F)F)cc2N1,EC20,[3],70 nM
same,IC50,[1],256 nM
CC1=C(c2ncn(-c3ccccc3C)n2)[C@@H](c2ccc(Cl)c(Cl)c2)n2nc(C)cc2N1,IC50,[1],722 nM
CC1=C(c2ncnn2C2CCCCC2)[C@@H](c2ccc(Cl)c(Cl)c2)n2nc(C)cc2N1,IC50,[1],127 nM
CC1=C(c2ncnn2-c2cccc(C(F)(F)F)n2)[C@@H](c2ccc(Cl)c(Cl)c2)n2nc(C(F)(F)F)cc2N1,EC20,[3],140 nM
same,IC50,[1],96 nM
CCCn1ncnc1C1=C(C)Nc2ccnn2[C@@H]1c1ccc(Cl)c(Cl)c1,IC50,[1],102 nM
CC1=C(c2ncnn2CC(F)(F)F)[C@@H](c2ccc(Cl)c(Cl)c2)n2nccc2N1,IC50,[1],200 nM
CC1=C(c2nccn2C(C)C)[C@@H](c2ccc(Cl)c(Cl)c2)n2nc(C(F)(F)F)cc2N1,clearance,[4],63 mL/min/kg
same,half-life,[5],54 min
same,EC20,[3],110 nM
same,IC50,[1],204 nM
CC1=C(c2ncnn2CC2CC2)[C@@H](c2ccc(Cl)c(Cl)c2)n2nccc2N1,IC50,[1],229 nM
CC1=C(c2ncnn2-c2ccc(F)cc2)[C@@H](c2ccc(Cl)c(Cl)c2)n2nccc2N1,IC50,[1],115 nM
